Data: US7875587B2, “Peptide analogues of GIP for treatment of diabetes, insulin resistance and obesity” (UUTECH Limited, priority 2004, dated 2011)
No end group written: not given here.

Key:
[1] = Degradation of GIP and analogues by human plasma (HPLC); type: in vitro ADME
Outline: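 Pooled plasma from six fasted humans was incubated with GIP or Tyr^1-glucitol GIP (10 μg) at 37 °C for 0 and 4 h in 50 mmol/l triethanolamine/HCl, pH 7.8; 4 h runs were also done with diprotin A […]. TFA-stopped samples were Sep-Pak cleaned, then run on reversed-phase HPLC (206 nm peak areas) with ESI-MS.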

DPP IV = molecular target: T1, DPP IV (Sus scrofa, UniProt P22411); assay: DPP IV degradation studies of fatty acid derivatised GIP analogues; type: in vitro ADME, porcine; settings: pig, isolated enzyme dpp iv, pH 7.8, incubation with DPP IV, read-out: % Intact peptide remaining after time (hours)
T1 construct: purchased Sigma (Poole, Dorset, UK)
T1 sequence (P22411 whole entry): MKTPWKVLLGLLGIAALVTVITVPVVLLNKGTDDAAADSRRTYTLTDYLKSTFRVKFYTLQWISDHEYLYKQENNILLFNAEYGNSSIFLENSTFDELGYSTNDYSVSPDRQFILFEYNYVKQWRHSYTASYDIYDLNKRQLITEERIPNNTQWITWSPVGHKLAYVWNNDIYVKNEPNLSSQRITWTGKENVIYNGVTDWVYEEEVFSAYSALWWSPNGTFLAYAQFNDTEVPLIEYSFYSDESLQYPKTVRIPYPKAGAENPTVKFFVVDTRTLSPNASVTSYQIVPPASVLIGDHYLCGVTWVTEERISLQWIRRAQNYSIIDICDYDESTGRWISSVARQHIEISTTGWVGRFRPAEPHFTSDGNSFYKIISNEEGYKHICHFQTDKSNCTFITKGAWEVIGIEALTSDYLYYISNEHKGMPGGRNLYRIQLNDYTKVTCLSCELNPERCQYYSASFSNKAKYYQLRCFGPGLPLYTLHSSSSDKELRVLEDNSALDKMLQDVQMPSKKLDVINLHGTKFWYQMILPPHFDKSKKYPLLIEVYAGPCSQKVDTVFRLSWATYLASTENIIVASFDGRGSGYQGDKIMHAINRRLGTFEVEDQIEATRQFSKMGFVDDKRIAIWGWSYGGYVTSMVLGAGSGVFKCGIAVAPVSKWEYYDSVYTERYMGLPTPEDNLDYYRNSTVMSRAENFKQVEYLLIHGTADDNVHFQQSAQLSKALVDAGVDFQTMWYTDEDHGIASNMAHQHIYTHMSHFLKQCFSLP
Procedure: DPP IV degradation studies. GIP and fatty acid derivatised GIP analogues were incubated at 37° C. with purified porcine dipeptidylpeptidase IV (5 mU in 50 mmol/l triethanolamine-HCl; pH 7.8) for 0, 2, 4, 8 and 24 hours (final peptide concentration 2 mmol/l). The reactions were subsequently terminated by addition of 10% (v/v) TFA/water and the reaction products separated using HPLC. […] HPLC peak area data were used to calculate % intact peptide remaining throughout the incubation.

ob/ob mice = assay: Once daily i.p. (Pro3)GIP over 11 days in ob/ob mice (Example 5); type: in vivo, mouse
Procedure: Animals. Obese diabetic (ob/ob) mice derived from the colony maintained at Aston University, UK (Bailey, C. J., et al., 1982, Int. J. Obes. 6:11-21) were used at 12-16 weeks of age. Animals were age-matched, divided into groups and housed individually in an air-conditioned room at 22±2° C. with a 12 hour light: 12 hour dark cycle. Drinking water and a standard rodent maintenance diet (Trouw Nutrition, Cheshire, UK) were freely available. All animal experiments were carried out in accordance with the UK Animals (Scientific Procedures) Act 1986.
Experimental protocols for ob/ob mouse studies. Initially, extended biological activity of (Pro^3)GIP was examined in 18-hour fasted ob/ob mice 4 hours after administration. Thereafter, over an 11-day period, mice received once daily i.p. injections (17:00 hours) of either saline vehicle (0.9% (w/v), NaCl) or (Pro^3)GIP (25 nmol/kg body wt). During a subsequent 9-day period, observations were continued following discontinuation of (Pro^3)GIP administration. Food intake and body weight were recorded daily whilst plasma glucose and insulin concentrations were monitored at intervals of 2-6 days. Whole blood for the measurement of glycated hemoglobin was taken on days 11 and 20. Intraperitoneal glucose tolerance (18 mmol/kg body wt), metabolic response to native GIP (25 nmol/kg body wt) and insulin sensitivity (50 U/kg body wt) tests were performed on days 11 and 20. Mice fasted for 18 hours were used to examine the metabolic response to 15 minutes feeding. In a separate series, pancreatic tissues were excised at the end of the 11-day treatment period or 9 days following discontinuation of (Pro^3)GIP and processed for immunohistochemistry or measurement of insulin following extraction with 5 ml/g of ice-cold acid ethanol (750 ml ethanol, 235 ml water, 15 ml concentrated HCl). Blood samples taken from the cut tip of the tail vein of conscious mice at the times indicated in the Figures were immediately centrifuged using a Beckman microcentrifuge (Beckman Instruments, UK) for 30 seconds at 13,000 g. The resulting plasma was then aliquoted into fresh Eppendorf tubes and stored at −20° C. prior to glucose and insulin determinations.
Biochemical analysis. Plasma glucose was assayed by an automated glucose oxidase procedure (Stevens, J. F., 1971, Clin. Chem. Acta 32:199-201) using a Beckman Glucose Analyzer II (Beckman Instruments, Galway, Ireland). Plasma and pancreatic insulin were assayed by a modified dextran-coated charcoal radioimmunoassay (Flatt, P. R. et al., 1981, Diabetologia 20:573-577). Glycated hemoglobin was determined using cation-exchange columns (Sigma, Poole, Dorset, UK) with measurement of absorbance (415 nm) in wash and eluting buffer using a VersaMax Microplate Spectrophotometer (Molecular Devices, Wokingham, Berkshire, UK).
Immunocytochemistry. Tissue fixed in 4% paraformaldehyde/PBS and embedded in paraffin was sectioned at 8 μm. After de-waxing, sections were incubated with blocking serum (Vector Laboratories, Calif., USA) prior to exposure to insulin antibody. Tissue samples were then incubated consecutively with secondary biotinylated universal, pan-specific antibody (Vector Laboratories, Calif., USA) and streptavidin/peroxidase preformed complex (Vector Laboratories, Calif., USA). Following washing, the stained pancreatic tissue was counterstained with hematoxylin (BDH Chemicals, Dorset, UK) and then plunged into acid methanol (500 ml methanol, 500 ml H2O and 2.5 ml concentrated HCl) prior to dehydration and mounting in Depex (BDH Chemicals, Dorset, UK). The stained slides were viewed under a microscope (Nikon Eclipse E2000, Diagnostic Instruments Incorporated, Michigan, USA) attached to a JVC camera Model KY-F55B (JVC, London, UK) and analyzed using Kromoscan imaging software (Kinetic Imaging Limited, Faversham, Kent, UK). […]

[2] = human, plasma, pH 7.8, % Intact peptide remaining after incubations with human plasma
[3] = 4 hours after 25 nmoles/kg, 18 h fasted, vs saline

## CC[C@H](C)[C@H](NC(=O)[C@H](CO)NC(=O)[C@H](Cc1ccc(O)cc1)NC(=O)[C@H](CC(=O)O)NC(=O)[C@H](CO)NC(=O)[C@@H](NC(=O)[C@H](Cc1ccccc1)NC(=O)[C@@H](NC(=O)CNC(=O)[C@H](CCC(=O)O)NC(=O)[C@H](C)NC(=O)[C@@H](N)Cc1ccc(O)cc1)[C@@H](C)O)[C@@H](C)CC)C(=O)N[C@@H](C)C(=O)N[C@@H](CCSC)C(=O)N[C@@H](CC(=O)O)C(=O)N[C@@H](CCCCN)C(=O)N[C@H](C(=O)N[C@@H](Cc1c[nH]cn1)C(=O)N[C@@H](CCC(N)=O)C(=O)N[C@@H](CCC(N)=O)C(=O)N[C@@H](CC(=O)O)C(=O)N[C@@H](Cc1ccccc1)C(=O)N[C@H](C(=O)N[C@@H](CC(N)=O)C(=O)N[C@@H](Cc1c[nH]c2ccccc12)C(=O)N[C@@H](CC(C)C)C(=O)N[C@@H](CC(C)C)C(=O)N[C@@H](C)C(=O)N[C@@H](CCC(N)=O)C(=O)N[C@@H](CCCCN)C(=O)NCC(=O)N[C@@H](CCCCN)C(=O)N[C@@H](CCCCN)C(=O)N[C@@H](CC(N)=O)C(=O)N[C@@H](CC(=O)O)C(=O)N[C@@H](Cc1c[nH]c2ccccc12)C(=O)N[C@@H](CCCCN)C(=O)N[C@@H](Cc1c[nH]cn1)C(=O)N[C@@H](CC(N)=O)C(=O)N[C@H](C(=O)N[C@H](C(=O)N[C@@H](CCC(N)=O)C(=O)O)[C@@H](C)O)[C@@H](C)CC)C(C)C)[C@@H](C)CC [GIP 1–42, reference compound]
[1]
  degradation by human plasma: readily metabolised
  plasma degradation: rapidly degraded
[1]; human, plasma, 0 h
  % Intact peptide remaining after incubations with human plasma: 100%
[1]; [2]
  remaining at 2 h, 20 µg/ml: 52 ± 1%
  remaining at 4 h, 20 µg/ml: 23 ± 1%
  remaining at 8 h, 20 µg/ml: 0%

## CCCCCCCCCCCCCCCC(=O)NCCCC[C@H](NC(=O)[C@H](Cc1c[nH]c2ccccc12)NC(=O)[C@H](CC(=O)O)NC(=O)[C@H](CC(N)=O)NC(=O)[C@H](CCCCN)NC(=O)[C@H](CCCCN)NC(=O)CNC(=O)[C@H](CCCCN)NC(=O)[C@H](CCC(N)=O)NC(=O)[C@H](C)NC(=O)[C@H](CC(C)C)NC(=O)[C@H](CC(C)C)NC(=O)[C@H](Cc1c[nH]c2ccccc12)NC(=O)[C@H](CC(N)=O)NC(=O)[C@@H](NC(=O)[C@H](Cc1ccccc1)NC(=O)[C@H](CC(=O)O)NC(=O)[C@H](CCC(N)=O)NC(=O)[C@H](CCC(N)=O)NC(=O)[C@H](Cc1c[nH]cn1)NC(=O)[C@@H](NC(=O)[C@H](CCCCN)NC(=O)[C@H](CC(=O)O)NC(=O)[C@H](CCSC)NC(=O)[C@H](C)NC(=O)[C@@H](NC(=O)[C@H](CO)NC(=O)[C@H](Cc1ccc(O)cc1)NC(=O)[C@H](CC(=O)O)NC(=O)[C@H](CO)NC(=O)[C@@H](NC(=O)[C@H](Cc1ccccc1)NC(=O)[C@@H](NC(=O)CNC(=O)[C@H](CCC(=O)O)NC(=O)[C@H](C)NC(=O)[C@H](Cc1ccc(O)cc1)NC(C)=O)[C@@H](C)O)[C@@H](C)CC)[C@@H](C)CC)[C@@H](C)CC)C(C)C)C(=O)N[C@@H](Cc1c[nH]cn1)C(=O)N[C@@H](CC(N)=O)C(=O)N[C@H](C(=O)N[C@H](C(=O)N[C@@H](CCC(N)=O)C(=O)O)[C@@H](C)O)[C@@H](C)CC [N-AcGIP(LysPAL^37)]
DPP IV; 2 h
  remaining at 2 h, 2 mmol/l: 100%
DPP IV; 8 h
  remaining at 8 h, 2 mmol/l: 100%
DPP IV; 24 h
  remaining at 24 h, 2 mmol/l: 100%

## YAPGTFISDYSIAMDKIHQQDFVNWLLAQKGKKNDWKHNITQ [(Pro^3)GIP]
ob/ob mice; 25 nmol/kg/day i.p., 11 days, vs controls
  reduction of non-fasting plasma glucose levels: 1.6 fold
ob/ob mice; 25 nmol/kg/day i.p., 11 days, vs controls (abstract of Example 5)
  reduction of overall glycemic excursion (AUC) to a glucose load: 1.6 fold
ob/ob mice; [3]
  decrease of AUC insulin in response to native GIP with glucose: 25%
  increase of AUC glucose in response to native GIP with glucose: 151%
ob/ob mice; 9 days following cessation of daily injection
  glycated hemoglobin: 7.7±0.4%
ob/ob mice; 11 days treatment
  average islet diameter: markedly and significantly reduced
  enhancement of insulin sensitivity: 1.6 fold
  islet number per pancreatic section: No significant differences
  lowering of overall plasma glucose response to feeding: 1.4 fold
  lowering of overall plasma insulin response to feeding: 1.5 fold
  pancreatic weight: no effect
  plasma insulin AUC 0-60 minutes after i.p. glucose: significantly decreased
  reduction of pancreatic insulin content: 1.3 fold
ob/ob mice; 11 days treatment, glucose 18 mmoles/kg, vs controls
  reduction of plasma glucose AUC 0-60 minutes after i.p. glucose: 2.1 fold
ob/ob mice; 11 days treatment, insulin 50 U/kg i.p.
  hypoglycemic action of insulin (AUC and post injection values): significantly (P<0.05) augmented
ob/ob mice; 11 days treatment, vs controls
  pancreatic insulin content: significantly (P<0.05) decreased
ob/ob mice; after 11 days treatment
  glycated hemoglobin: 6.9±0.2%
ob/ob mice; before treatment
  glycated hemoglobin: 8.0±0.3%
ob/ob mice; daily 25 nmol/kg, 11 days
  body weight: no effect
  food intake: no effect
ob/ob mice; day 11
  non-fasting plasma glucose: significantly reduced
ob/ob mice; during or after the treatment period
  plasma insulin levels: No significant changes
ob/ob mice; following administration to ob/ob mice
  adverse effects: No adverse effects were observed
ob/ob mice; insulin sensitivity test after 11 days
  increase in the glucose-lowering action of exogenous insulin: 57%
